Data taken from patent US20250235427A1, “5-METHOXY-N,N-[…][…] THE TREATMENT OF SOCIAL/EMOTIONAL […] DETACHMENT” (GH RESEARCH IRELAND LIMITED, priority 2022, published 2025).

System: patients with postpartum depression (PPD)
Test: Clinical trial, inhaled 5-MeO-DMT individualized dosing regimen in postpartum depression (one patient so far)
Procedure: The single-arm, open-label clinical trial will involve 15 adult female patients with clinically diagnosed postpartum depression (PPD).
The second dose (12 mg) will only be administered if: • a. […] The 6 mg dose was safe and well-tolerated according to the investigator, • c. Any psychoactive effects (PsE) of the prior dose have subsided, and • d. Pre-dose vital parameters and forced expiratory volume in one second (FEV1) are in normal range, or if outside of the normal range, are not clinically significant according to the investigator. • 3. Similarly, a third dose (18 mg) will only be administered if: • a. […] The 12 mg dose was safe and well-tolerated according to the investigator, and • c. Any PsE of the prior dose have subsided, and • d. Pre-dose vital parameters and forced expiratory volume in one second (FEV1) are in normal range, or if outside of the normal range, are not clinically significant according to the investigator.
The patients will be assessed for a peak psychedelic experience (based on a patient-scored visual analogue scale, the PE scale), sedation, and other endpoints after dosing. Follow-up visits are planned for Day 1, and Day 7 after the dosing day.

Compound: COc1ccc2[nH]cc(CCN(C)C)c2c1 [5-MeO-DMT]
- standard criteria for MADRS response (at least 50% improvement) and MADRS remission (total score equal or less than 10): fulfilled
- tolerability of the inhalation procedure: well tolerated with no inhalation-related adverse events
- MADRS Concentration Difficulties improvement (2 hr, baseline 0): 0
- MADRS Concentration Difficulties score (2 hr, baseline 0): 0
- MADRS Reduced appetite improvement (2 hr, baseline 0): 0
- MADRS Reduced appetite score (2 hr, baseline 0): 0
- MADRS Suicidal Thoughts improvement (2 hr, baseline 0): 0
- MADRS Suicidal Thoughts score (2 hr, baseline 0): 0
- MADRS Inability to Feel improvement (2 hr, baseline 3): 3
- MADRS Inability to Feel score (2 hr, baseline 3): 0
- MADRS Lassitude improvement (2 hr, baseline 3): 3
- MADRS Lassitude score (2 hr, baseline 3): 0
- MADRS Pessimistic Thoughts improvement (2 hr, baseline 4): 4
- MADRS Pessimistic Thoughts score (2 hr, baseline 4): 0
- MADRS Reported sadness improvement (2 hr, baseline 4): 4
- MADRS Reported sadness score (2 hr, baseline 4): 0
- MADRS Apparent sadness improvement (2 hr, baseline 5): 5
- MADRS Apparent sadness score (2 hr, baseline 5): 0
- MADRS Inner Tension improvement (2 hr, baseline 5): 5
- MADRS Inner Tension score (2 hr, baseline 5): 0
- MADRS Reduced Sleep improvement (2 hr, baseline 5): 0
- MADRS Reduced Sleep score (2 hr, baseline 5): 5
- reported adverse events (cramping left abdominal pain and headache) (Day 0): mild, short-lasting and resolved spontaneously
- MADRS Concentration Difficulties improvement (Day 1, baseline 0): 0
- MADRS Concentration Difficulties score (Day 1, baseline 0): 0
- MADRS Reduced appetite improvement (Day 1, baseline 0): 0
- MADRS Reduced appetite score (Day 1, baseline 0): 0
- MADRS Suicidal Thoughts improvement (Day 1, baseline 0): 0
- MADRS Suicidal Thoughts score (Day 1, baseline 0): 0
- BPRS Blunted affect improvement (Day 1, baseline 1): 0
- BPRS Blunted affect score (Day 1, baseline 1): 1
- BPRS Conceptual disorganization improvement (Day 1, baseline 1): 0
- BPRS Conceptual disorganization score (Day 1, baseline 1): 1
- BPRS Disorientation improvement (Day 1, baseline 1): 0
- BPRS Disorientation score (Day 1, baseline 1): 1
- BPRS Grandiosity improvement (Day 1, baseline 1): 0
- BPRS Grandiosity score (Day 1, baseline 1): 1
- BPRS Hallucinatory behaviour improvement (Day 1, baseline 1): 0
- BPRS Hallucinatory behaviour score (Day 1, baseline 1): 1
- BPRS Hostility improvement (Day 1, baseline 1): 0
- BPRS Hostility score (Day 1, baseline 1): 1
- BPRS Mannerisms and Posturing improvement (Day 1, baseline 1): 0
- BPRS Mannerisms and Posturing score (Day 1, baseline 1): 1
- BPRS Motor retardation improvement (Day 1, baseline 1): 0
- BPRS Motor retardation score (Day 1, baseline 1): 1
- BPRS Suspiciousness improvement (Day 1, baseline 1): 0
- BPRS Suspiciousness score (Day 1, baseline 1): 1
- BPRS Uncooperativeness improvement (Day 1, baseline 1): 0
- BPRS Uncooperativeness score (Day 1, baseline 1): 1
- BPRS Unusual Thought Content improvement (Day 1, baseline 1): 0
- BPRS Unusual Thought Content score (Day 1, baseline 1): 1
- BPRS Excitement improvement (Day 1, baseline 2): 1
- BPRS Excitement score (Day 1, baseline 2): 1
- MADRS Inability to Feel improvement (Day 1, baseline 3): 3
- MADRS Inability to Feel score (Day 1, baseline 3): 0
- MADRS Lassitude improvement (Day 1, baseline 3): 3
- MADRS Lassitude score (Day 1, baseline 3): 0
- MADRS Pessimistic Thoughts improvement (Day 1, baseline 4): 4
- MADRS Pessimistic Thoughts score (Day 1, baseline 4): 0
- MADRS Reported sadness improvement (Day 1, baseline 4): 4
- MADRS Reported sadness score (Day 1, baseline 4): 0
- BPRS Emotional withdrawal improvement (Day 1, baseline 5): 4
- BPRS Emotional withdrawal score (Day 1, baseline 5): 1
- MADRS Apparent sadness improvement (Day 1, baseline 5): 5
- MADRS Apparent sadness score (Day 1, baseline 5): 0
- MADRS Inner Tension improvement (Day 1, baseline 5): 5
- MADRS Inner Tension score (Day 1, baseline 5): 0
- MADRS Reduced Sleep improvement (Day 1, baseline 5): 5
- MADRS Reduced Sleep score (Day 1, baseline 5): 0
- BPRS Depressive Mood improvement (Day 1, baseline 6): 5
- BPRS Depressive Mood score (Day 1, baseline 6): 1
- BPRS Guilt feelings improvement (Day 1, baseline 6): 5
- BPRS Guilt feelings score (Day 1, baseline 6): 1
- BPRS Somatic Concern improvement (Day 1, baseline 6): 5
- BPRS Somatic Concern score (Day 1, baseline 6): 1
- BPRS Tension improvement (Day 1, baseline 6): 5
- BPRS Tension score (Day 1, baseline 6): 1
- BPRS Anxiety improvement (Day 1, baseline 7): 6
- BPRS Anxiety score (Day 1, baseline 7): 1
- BIMF item 2 (I feel rested) score (Day 7, Day 0 score 0): 2
- BIMF item 19 (As time goes on, I am getting better at taking care of my baby) score (Day 7, Day 0 score 0): 1
- BIMF item 18 (Anxiety or worry often interferes with my mothering ability) score (Day 7, Day 0 score 2): 5
- BIMF item 13 (I am taking good care of my physical needs) score (Day 7, Day 0 score 4): 5
- BIMF item 4 (My baby and I understand each other) score (Day 7, Day 0 score 5): 5
- BIMF item 5 (I am able to relax and enjoy time with my baby) score (Day 7, Day 0 score 5): 6
- BIMF item 9 (I am getting enough encouragement from other people) score (Day 7, Day 0 score 5): 6
- BIMF item 10 (I trust my own feelings (instincts) when it comes to taking care of my baby) score (Day 7, Day 0 score 5): 6
- BIMF item 15 (My baby and I are getting into a routine) score (Day 7, Day 0 score 5): 6
- BIMF item 17 (I am able to take care of my baby and my other responsibilities) score (Day 7, Day 0 score 5): 5
- BIMF item 1 (I am a good mother) score (Day 7, Day 0 score 6): 6
- BIMF item 3 (I am comfortable with the way I've chosen to feed my baby) score (Day 7, Day 0 score 6): 6
- BIMF item 6 (There are people in my life that I can trust to care for my baby when I need a break) score (Day 7, Day 0 score 6): 6
- BIMF item 8 (I am getting enough adult interaction) score (Day 7, Day 0 score 6): 6
- BIMF item 12 (I am taking good care of my baby's physical needs) score (Day 7, Day 0 score 6): 6
- BIMF item 14 (I make good decisions about my baby's health and well being) score (Day 7, Day 0 score 6): 6
- BIMF item 20 (I am satisfied with the job I am doing as a new mother) score (Day 7, Day 0 score 6): 5
- MADRS Concentration Difficulties improvement (Day 7, baseline 0): 0
- MADRS Concentration Difficulties score (Day 7, baseline 0): 0
- MADRS Reduced appetite improvement (Day 7, baseline 0): 0
- MADRS Reduced appetite score (Day 7, baseline 0): 0
- MADRS Suicidal Thoughts improvement (Day 7, baseline 0): 0
- MADRS Suicidal Thoughts score (Day 7, baseline 0): 0
- BPRS Blunted affect improvement (Day 7, baseline 1): 0
- BPRS Blunted affect score (Day 7, baseline 1): 1
- BPRS Conceptual disorganization improvement (Day 7, baseline 1): 0
- BPRS Conceptual disorganization score (Day 7, baseline 1): 1
- BPRS Disorientation improvement (Day 7, baseline 1): 0
